Assay results: publication PMC11982232, “Factors affecting irreversible inhibition of EGFR and influence of chirality on covalent binding” (Communications Chemistry, 2025)

Key:
[1] = test system: GSH; assay: GSH reactivity (glutathione half-life); type: physicochemical; conditions: 4.6 mM glutathione (GSH) in phosphate buffer; 4.6 mM GSH, 50 µM compound, pH 7.4 phosphate buffer, 37 °C; read-out: GSH t1/2 (converted)
Experimental: Compounds were suspended to 10 mM in 100% DMSO and were added to 4.6 mM GSH to achieve the final compound concentration of 50 µM in pH 7.4 phosphate buffer before incubating at 37 °C. Compound reaction with GSH was monitored by LC-MS on a Waters Acquity UPLC system with PDA and ELSD operating in positive and negative ion electrospray mode, employing an Acquity UPLC BEH C18, […], 2.1 × 50 mm column with 0.1% formic acid and water-acetonitrile (5–95%) for gradient elution over 4 minutes.

[2] = molecular target: T1, EGFR WT (Homo sapiens, UniProt P00533); assay: TR-FRET probe displacement assay, EGFR WT; type: binding; conditions: for WT pIC50 / IC50: 30 min incubation, mean of at least 3 replicates; for IC50: read-out: WT pIC50 (converted)
T1 construct: made in house; host or cells: Sf9 insect cells (MultiBac baculovirus)
T1 sequence (P00533 25-1210): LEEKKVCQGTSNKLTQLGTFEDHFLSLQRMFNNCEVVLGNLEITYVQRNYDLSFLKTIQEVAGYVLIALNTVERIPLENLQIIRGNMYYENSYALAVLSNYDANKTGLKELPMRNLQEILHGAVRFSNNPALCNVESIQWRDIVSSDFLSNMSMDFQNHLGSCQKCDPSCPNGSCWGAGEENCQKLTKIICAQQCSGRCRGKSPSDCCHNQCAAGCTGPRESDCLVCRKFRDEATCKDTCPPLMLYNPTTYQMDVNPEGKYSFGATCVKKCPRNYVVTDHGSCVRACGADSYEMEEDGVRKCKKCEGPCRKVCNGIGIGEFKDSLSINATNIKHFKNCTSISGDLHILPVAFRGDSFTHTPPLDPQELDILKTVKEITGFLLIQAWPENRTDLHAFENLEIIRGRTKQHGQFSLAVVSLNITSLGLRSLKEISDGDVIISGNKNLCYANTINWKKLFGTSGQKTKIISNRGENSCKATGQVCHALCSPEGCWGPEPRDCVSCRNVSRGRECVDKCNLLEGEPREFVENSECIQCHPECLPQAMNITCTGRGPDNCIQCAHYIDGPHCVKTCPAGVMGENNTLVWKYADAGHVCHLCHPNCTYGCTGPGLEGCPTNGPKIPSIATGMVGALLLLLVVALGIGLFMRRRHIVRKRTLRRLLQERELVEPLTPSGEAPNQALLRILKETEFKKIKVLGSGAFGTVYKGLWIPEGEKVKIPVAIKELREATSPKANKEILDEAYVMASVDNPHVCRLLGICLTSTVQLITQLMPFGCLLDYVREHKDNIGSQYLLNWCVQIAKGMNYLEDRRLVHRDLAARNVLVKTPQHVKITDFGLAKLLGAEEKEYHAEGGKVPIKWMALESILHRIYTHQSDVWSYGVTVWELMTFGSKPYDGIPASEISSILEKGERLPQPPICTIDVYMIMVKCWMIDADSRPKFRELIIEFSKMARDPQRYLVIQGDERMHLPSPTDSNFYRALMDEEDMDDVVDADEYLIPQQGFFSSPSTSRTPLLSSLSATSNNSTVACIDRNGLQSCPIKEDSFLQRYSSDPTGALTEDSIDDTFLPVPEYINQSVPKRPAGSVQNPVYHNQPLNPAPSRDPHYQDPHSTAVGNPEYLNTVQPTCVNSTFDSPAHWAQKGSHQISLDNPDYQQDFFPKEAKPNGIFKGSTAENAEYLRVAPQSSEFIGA
Experimental: (§1) The binding mode of gefitinib, typical of an anilinoquinazoline-based kinase inhibitor, is well characterised, with the morpholine side-chain extending into the solvent exposed region where a variety of substituents are tolerated. […] Accordingly, probe compound 6 was prepared, in which the morpholine was replaced by a piperazine and a BODIPY fluorophore was attached via a 4-aminobutanoate spacer (Fig. 3a). A related sapitinib-derived tracer has subsequently been described. Compound 6 was employed in a time-resolved Förster-resonance energy transfer (TR-FRET) assay with EGFR bound to a terbium-containing antibody (Fig. 3b). In line with our previous work exploring the activity of anilinoquinazoline-based acrylamide TCIs[14], the incubation time for the assay was set at 30 mins.
(§2) Compounds (dissolved to 10 mM in DMSO) were dispensed into black low-volume 384 well assay plates (Corning) over a final concentration range of 100000, 30,000, 10,000, 3000, 1000, 300, 100, 30, 10, and 3 nM using an Echo 550 (Labcyte). Positive control compound and DMSO as a negative control were dispensed into the first and last well, respectively. Each well was backfilled with DMSO to a final volume of 200 nl, resulting in final assay DMSO concentrations of 1%. […] Plates were read using a PheraStar FS (BMG Labtech) at Ex337nm […]. The data were analysed using GraphPad Prism/Dotmatics Studies Software. Assays were conducted in technical replicate and repeated as a biological duplicate.

[3] = molecular target: T2, EGFR DM (L858R/T790M) (Homo sapiens, UniProt P00533, L858R/T790M); assay: TR-FRET probe displacement assay, EGFR DM; type: binding; conditions: for DM pIC50 / IC50: 30 min incubation, mean of at least 3 replicates; for IC50: read-out: DM pIC50 (converted)
T2 construct: His tag
T2 sequence (P00533 25-1210 T790M/L858R): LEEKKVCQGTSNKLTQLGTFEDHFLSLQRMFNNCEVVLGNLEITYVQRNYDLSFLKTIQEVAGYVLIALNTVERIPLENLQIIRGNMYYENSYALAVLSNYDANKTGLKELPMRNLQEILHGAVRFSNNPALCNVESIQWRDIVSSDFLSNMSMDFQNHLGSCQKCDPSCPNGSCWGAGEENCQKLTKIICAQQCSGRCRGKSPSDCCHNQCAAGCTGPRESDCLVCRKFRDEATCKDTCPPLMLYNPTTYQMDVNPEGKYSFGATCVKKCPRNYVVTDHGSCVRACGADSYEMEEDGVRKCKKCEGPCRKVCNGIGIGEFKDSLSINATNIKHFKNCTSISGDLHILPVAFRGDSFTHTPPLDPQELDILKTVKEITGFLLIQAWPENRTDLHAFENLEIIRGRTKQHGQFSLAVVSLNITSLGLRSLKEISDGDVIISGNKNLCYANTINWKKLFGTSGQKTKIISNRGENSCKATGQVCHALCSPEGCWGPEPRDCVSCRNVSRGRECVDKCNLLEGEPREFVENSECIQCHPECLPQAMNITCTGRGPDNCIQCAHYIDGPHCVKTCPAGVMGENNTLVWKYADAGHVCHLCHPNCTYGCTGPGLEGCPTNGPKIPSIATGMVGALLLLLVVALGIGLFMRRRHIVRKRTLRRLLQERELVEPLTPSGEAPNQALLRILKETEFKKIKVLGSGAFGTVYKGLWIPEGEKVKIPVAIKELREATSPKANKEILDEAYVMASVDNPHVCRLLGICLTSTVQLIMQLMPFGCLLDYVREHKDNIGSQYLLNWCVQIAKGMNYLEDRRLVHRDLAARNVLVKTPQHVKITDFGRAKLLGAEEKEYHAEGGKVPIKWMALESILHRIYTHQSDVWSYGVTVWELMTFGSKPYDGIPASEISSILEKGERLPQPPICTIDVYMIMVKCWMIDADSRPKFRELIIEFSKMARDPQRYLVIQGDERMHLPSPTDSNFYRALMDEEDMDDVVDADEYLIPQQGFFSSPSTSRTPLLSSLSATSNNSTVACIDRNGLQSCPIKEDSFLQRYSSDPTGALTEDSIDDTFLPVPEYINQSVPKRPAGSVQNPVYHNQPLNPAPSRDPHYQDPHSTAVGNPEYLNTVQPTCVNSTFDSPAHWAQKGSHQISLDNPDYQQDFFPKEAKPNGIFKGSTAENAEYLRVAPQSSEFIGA
Experimental: as §1, §2

[4] = test system: pEGFR in WT EGFR overexpressing A431 cells; assay: Cellular pEGFR inhibition by HTRF in A431 cells; type: cell-based; conditions: Homo sapiens, A-431, n = 1, read-out: pIC50 (A431) cellular pEGFR inhibition (converted)
Experimental: (§3) Cells were plated at 20,000 cells per well in 96 well plates and placed at 37°C 5% CO2. Once adhered (after 24 h) cells were treated with compounds dissolved in DMSO at a final concentration of 0.1% DMSO in media. Compounds were diluted in media then added to cells for 2.5 hours in duplicate. 100 ng/ml EGF (ThermoFisher, PHG0311) was is added to all compound treated cells as well as a control for 30 mins. Compound and media were removed from the cells, then 50ul of HTRF lysis buffer was added (lysis buffer was diluted from 4X stock to 1X in DI water, with 1% blocking agent also added). Cells were lysed on a plate shaker (2000 rpm) for 30 minutes at room temperature. pEGFR expression was monitored using the Cisbio Phospho-EGFR (Tyr1068) cellular kit (64EG1PEH). Total EGFR expression was monitored using the Cisbio Total EGFR cellular kit (64NG1PEH) as per manufacturer’s instructions. Fluorescence emission was read at two different wavelengths (665 nm and 620 nm) on a PheraStar. Results were calculated as the ratio of pEGFR/ total EGFR and then the percentage of 0 µM control. Data is n = 1 from 2 replicates.

[5] = test system: pEGFR in DM expressing H1975 cells; assay: Cellular pEGFR inhibition by HTRF in H1975 cells; type: cell-based; conditions: Homo sapiens, NCI-H1975, n = 1, read-out: pIC50 (H1975) cellular pEGFR inhibition (converted)
Experimental: as §3

[6] = test system: A431 cells; assay: Growth inhibition in A431 cells (SRB, 72 h); type: cell-based; conditions: Homo sapiens, A-431, A431 cell viability, n = 1
Experimental: A431 cells purchased from ECACC, Cat. 85090402, were plated on day 0 in a 96-well plate at a density known to allow for exponential growth over 72 h in DMEM (Sigma-Aldrich, Cat No. D5796) supplemented with 10% FBS (Gibco, Cat No. 10270-106). On day 1, the compounds were diluted to the required concentration in DMEM + 10% FBS media, ensuring that the final DMSO concentration was 0.1% once added to cells. The cells were then incubated for 72 h at 37 °C with 5% CO2. Cells were then fixed by adding 50% (wt/vol) TCA to each well of the plate and left at 4 °C for 1 h. The plates were then washed thoroughly with water, 100 μL of 0.4% SRB solution was added to the wells, and left at room temperature for 30 min. The plates were rinsed with 1% AcOH and then left to air-dry in a drying cabinet for 1 h. Once dry, 100 μL of 10 mM tris pH 10.5 was added to each well and the plates were placed on a plate shaker for 10 min. The absorbance was read at 570 nm using a FluoStar Omega plate reader. Data is n = 1 from 3 replicates, […]

[7] = molecular target: T3, WT EGFR (Homo sapiens, UniProt P00533); assay: Intact protein mass spectrometry; type: binding; conditions: 15 µM compound, 4 µM EGFR, 4 hr, ambient temperature
T3 construct: AssayQuant Technologies Inc. (contract measurement)
T3 sequence (P00533 25-1210): as the sequence (P00533 25-1210) above
Experimental: Compounds were suspended to 10 mM in 100% DMSO and were added to 4 µM EGFR to achieve the final compound concentration of 15 µM in 1% DMSO, in 25 mM TRIS pH8, 150 mM NaCL, 5% glycerol before incubating at ambient temperature for the 4 hr time prior to analysis. […] 1 µL of purified protein (~1 mg/mL) was injected onto a MS Pac DS-10 Desalter cartridge ((Thermo Fisher Scientific), PN: 089170, 2.1 × 10 mm) for desalting and reversed phase separation at 70 °C. The mobile phase was 0.1% (v/v) formic acid in LC-MS grade water (A) and LC-MS grade acetonitrile (B) with separation performed over 7.5 min. […] Proteins were detected in positive ion mode using electrospray ionisation with nebuliser pressure of 45 psig, drying gas flow of 5 L/min, and source gas temperature of 325 °C. Sheath gas temperature of 400 °C and gas flow of 11 L/min, capillary voltage of 3500 V and nozzle voltage of 2000V were also used. Mass spectra were acquired using MassHunter Acquisition software (version B.08.00) over a mass range of 100–3000 m/z, at a rate of 1 spectra/s and 1000 ms/spectrum in standard mass range (3200 m/z) at 2 GHz. The instrument had been calibrated over the selected mass range prior to analysis.

## C=CC(=O)Nc1cc(Nc2nccc(-c3cn(C)c4ccccc34)n2)c(OC)cc1N(C)CCN(C)C [Compound 2, osimertinib, reference compound]
[1]
  half-life at 50 µM: 2.5 h

## COc1cc2ncnc(Nc3ccc(F)c(Cl)c3)c2cc1OCCCN1CCN(C(=O)CCCNC(=O)CCc2ccc3n2[B-](F)(F)[N+]2=C(C)C=C(C)C2=C3)CC1 [Compound 6, N-(4-(4-(3-((4-((3-chloro-4-fluorophenyl)amino)-7-methoxyquinazolin-6-yl)oxy)propyl)piperazin-1-yl)-4-oxobutyl)-3-(5,5-difluoro-7,9-dimethyl-5H-5l4,6l4-dipyrrolo[1,2-c:2’,1’-f][1,3,2]diazaborinin-3-yl)propenamide, reference compound]
[2]; fluorescent probe
  Kd: 1600 ± 190 nM
[3]; fluorescent probe
  Kd: 3000 ± 1600 nM

## C=CC(=O)N1CCC(Oc2cc3c(Nc4cccc(Cl)c4F)ncnc3cc2OC)CC1 [Compound 7]
[2]
  WT pIC50: 8.8 ± 0.1
[3]
  DM pIC50: 8.4 ± 0.03

## C=CC(=O)N1CCC(Oc2cc3c(Nc4ccc(F)c(Cl)c4)ncnc3cc2OC)CC1 [Compound 8]
[2]
  WT pIC50: 8.3 ± 0.07
[3]
  DM pIC50: 8.0 ± 0.6

## C=CC(=O)N1CC[C@@H](Oc2cc3c(Nc4ccc(F)c(Cl)c4)ncnc3cc2OC)C1 [Compound 16]
[2]
  IC50: 316 nM
[3]
  IC50: 100 nM
[1]
  half-life at 50 µM: 36 h
[4]
  IC50: 79.4 nM
[5]
  IC50: 2510 nM
[6]
  GI50: 316 nM

## C=CC(=O)N1CC[C@H](Oc2cc3c(Nc4ccc(F)c(Cl)c4)ncnc3cc2OC)C1 [Compound 17]
[2]
  IC50: 5.01 nM
[3]
  IC50: 6.31 nM
[1]
  half-life at 50 µM: 41 h
[7]
  level of protein modification compared to 16: two-fold increase
[4]
  IC50: < 10 nM
[5]
  IC50: 25.1 nM
[6]
  GI50: 7.94 nM

## COc1cc2ncnc(Nc3ccc(F)c(Cl)c3)c2cc1O[C@@H]1CCN(C(C)=O)C1 [Compound 22]
[2]
  IC50: 39.8 nM
[3]
  IC50: 25.1 nM

## COc1cc2ncnc(Nc3ccc(F)c(Cl)c3)c2cc1O[C@H]1CCN(C(C)=O)C1 [Compound 23]
[2]
  IC50: 126 nM
[3]
  IC50: 31.6 nM
